Measured values as given in US10016409B2, “Method for improving interstitial flow” (priority 2012, dated 2018).
Structures can show the parent of a compound that is named as a salt.

Legend:
[1] = test system: MCI patients; settings: cited from earlier work; for conversion from MCI to Alzheimer: Non-patent Document 3; for effectiveness on MCI patients: clinical trials, Guidelines for Management of Dementia
[2] = test system: MCI patients; experiment: Clinical record analysis, MMSE change in MCI patients (MMSE 22 to 26) under donepezil hydrochloride oral administration; type: in vivo, human; settings: MCI patients MMSE 22-26
Source text: Patients subjected to oral administration of donepezil hydrochloride, having an observation period of one or more years before the MMSE test date, and having first MMSE scores less than or equal to 26 were picked up from a clinical record. Among the patients, patients recorded to have been consecutively administered with cilostazol for 6 months or more in the observation period were classified as a donepezil hydrochloride and cilostazol combined use group (69 cases), and patients recorded to have experienced no cilostazol oral administration were classified as a donepezil hydrochloride single use group (87 cases). Cilostazol was oral-administered at a dosage of 50 to 200 mg/day in the morning and evening, and donepezil hydrochloride was administered at a dosage of 5 mg/day once in a day. Among the patients, patients with MMSE scores greater than or equal to 22 and less than or equal to 26 were extracted as an MCI patient group. Then, 36 cases (16 males and 20 females, average age: 78.4 years old) of the donepezil hydrochloride single use group (hereinafter referred to as a single use group) and 34 cases (15 males and 19 females, average age: 77.2 years old) of the donepezil hydrochloride and cilostazol combined use group (hereinafter referred to as combined use group) were found. The average dosage of cilostazol in the combined use group was 121 mg/day. […] Measurement of MMSE was conducted at least twice in the observation period, and the first and last test results were selected for analysis.

[3] = test system: dementia patients; experiment: Clinical record analysis, MMSE change in dementia patients (MMSE less than or equal to 21) under donepezil hydrochloride oral administration; type: in vivo, human; settings: dementia patients MMSE less than or equal to 21
Source text: Patients subjected to oral administration of donepezil hydrochloride, having an observation period of one or more years before the MMSE test date, and having first MMSE scores less than or equal to 26 were picked up from a clinical record. Among the patients, patients recorded to have been consecutively administered with cilostazol for 6 months or more in the observation period were classified as a donepezil hydrochloride and cilostazol combined use group (69 cases), and patients recorded to have experienced no cilostazol oral administration were classified as a donepezil hydrochloride single use group (87 cases). Cilostazol was oral-administered at a dosage of 50 to 200 mg/day in the morning and evening, and donepezil hydrochloride was administered at a dosage of 5 mg/day once in a day.
As a dementia patient group oral-administered with donepezil hydrochloride, patients with MMSE scores less than or equal to 21 were extracted. Then, the donepezil hydrochloride single use group (the single use group) was 51 cases (17 males and 34 females, average age: 78.2 years old) and the donepezil hydrochloride and cilostazol combined use group (the combined use group) was 35 cases (14 males and 21 females, average age: 79.3 years old). The average dosage of cilostazol in the combined use group was 139 mg/day.

## vitamin E
[1]
  conversion from MCI to Alzheimer: do not affect conversion from MCI to Alzheimer
[1]; RCT directed to MCI patients
  dementia prophylactic effect / prophylactic effect against conversion to Alzheimer: neither dementia prophylactic effect nor prophylactic effect against conversion to Alzheimer was obtained

## estrogen
[1]; RCT, postmenopausal women of 65 years of age or more without dementia
  risk of onset of dementia or MCI: increased the risk of onset of dementia or MCI significantly

## COc1cc2c(cc1OC)C(=O)C(CC1CCN(Cc3ccccc3)CC1)C2 (stereo not drawn) [donepezil hydrochloride]
[2]; increment or decrement of MMSE score/observation period [year], average±standard error, p=0.022 between groups
  MMSE change rate: −2.23±0.69
[2]; per observation period [year], p=0.003
  change rate of MMSE item 1 of orientation to time: −0.85
[2]; per observation period [year], p=0.017
  change rate of MMSE item 2 of orientation to location: −0.31
[2]; per observation period [year], p=0.045
  change rate of MMSE item 5 of delayed recall: −0.28
[3]; p=0.37
  change rate of MMSE item 5 of delayed recall: −0.15
[3]; p=0.86
  change rate of MMSE item 2 of orientation to location: −0.13
[3]; p=0.89
  change rate of MMSE item 1 of orientation to time: −0.16
[3]; per observation period, average±standard error, p=0.72 between groups
  MMSE change rate: −0.90±037
[1]
  conversion from MCI to Alzheimer: do not affect conversion from MCI to Alzheimer
  effectiveness on MCI patients: very limited or is not present

## CS(=O)(=O)c1ccc(C2=C(c3ccccc3)C(=O)OC2)cc1 [rofecoxib]
[1]; guideline p. 116, Other Drugs (2)
  prophylactic effects (dementia or MCI): no prophylactic effects

## CCN(C)C(=O)Oc1cccc([C@H](C)N(C)C)c1 [rivastigmine]
[1]
  effectiveness on MCI patients: very limited or is not present
